Assay results as given in patent US20100249419A1, “UTILIZATION OF NOVEL COMPOUNDS WITH AMYLOID AFFINITY AND METHOD OF PRODUCING THE SAME” (NIHON MEDI-PHYSICS CO., LTD., priority 2007, published 2010).

Assays:
[1] = target: T1, aggregated amylin (amyloid) (Homo sapiens, UniProt P10997); test: Inhibition of binding of Thioflavin T to amyloid derived from amylin; settings: Thioflavin T 5 μmol/L
T1 construct: Amylin (human) (manufactured by Wako); purchased Wako
T1 sequence (P10997 34-70 limits assumed): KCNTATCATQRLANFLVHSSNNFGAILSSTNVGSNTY
Description: Amylin is an amyloid accumulating in pancreas of type II diabetes.
(1) Amylin (human) (manufactured by Wako) was dissolved in phosphate buffer (pH 7.4) and shaken at 37° C. for 72 hours, to obtain a 1 mg/mL suspension of aggregated amylin (hereinafter referred to as amyloid suspension in this Example).
(2) According to the method described in a literature (Naiki, H., et al., Laboratory
(3) The amyloid suspension was dissolved in 50 mM phosphate buffer (pH 7.4) at a concentration of amylin of 15 μM.
(4) Samples in which each compound for evaluation and amyloid were dissolved in a 50 mM phosphate buffer (pH 7.4) at final concentrations shown in Table 9 were prepared.
(5) A sample in which 100 μL of 50 mM phosphate buffer (pH 7.4) and 50 μL of 50 mM glycin-NaOH buffer were mixed was made as a blank, and subjected to the same procedure as in (4) and used for a calculation of inhibition ratio.
(6) The microplate filled with the sample solutions was left to stand still at room temperature for 30 hours.
(7) Using the fluorescence strength measured above in (6), the following formula (6): […]
was used to determine the inhibition ratio.

β2-microglobulin amyloid = target: T2, β2-microglobulin amyloid (Homo sapiens, UniProt P61769); test: In vitro binding of labeled compound to β2-m-amyloid (glass fiber filter); settings: β2-m-amyloid 0.8 μg/mL, 22° C., 3 hours
T2 construct: purchased Oriental Yeast Co., ltd
Description: β2-microglobulin with cross -sheet structure was prepared by the following procedures (5) and (6) which was the method described in the known literature (Ohhashi, Y. et al., Journal of Biological Chemistry. 280, p. 32843-32848 (2005)) to which a little modification was made. […]
(8) A solution of Compound 1 which was synthesized by the method above in Example 3 was prepared (radioactivity of 500 MBq/mL), and diluted with a 0.1% bovine serum albumin-containing phosphate buffer (pH 7.4) to prepare a solution of 1.2-112.9 pM in terms of the total amount of 2-[4′-(2″-hydroxyethoxy)phenyl]-6-iodoimidazo[1,2-a]pyridine. […]
(11) The glass fiber filter used for the filtration of the mixture was washed with a 0.1% bovine serum albumin-containing phosphate buffer (0.2 mL×5), and radioactivity of the glass fiber filter was measured with an autowell gamma system (manufactured by Aloka, Type: ARC-7001).
(12) From the measurement results of (11), relation between the amount of Compound 1 binding to amyloid and addition amount of amyloid was evaluated. For a non-specific binding, it was determined from a sample in which no amyloid suspension was added above in (9) (Example 36). […]

T2 sequence (P61769 21-119): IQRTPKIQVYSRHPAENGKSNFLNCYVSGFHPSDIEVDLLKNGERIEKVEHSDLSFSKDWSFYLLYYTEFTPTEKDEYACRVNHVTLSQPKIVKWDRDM

Substance | Inhibition ratio (%) of binding of amyloid (amylin) to Thioflavin T ([1]; compound 1.5 μmol/L) [%] | Inhibition ratio (%) of binding of amyloid (amylin) to Thioflavin T ([1]; compound 15 μmol/L) [%] | Inhibition ratio (%) of binding of amyloid (amylin) to Thioflavin T ([1]; compound 30 μmol/L) [%] | Radioactivity of the glass fiber filter versus amyloid non-added group (β2-microglobulin amyloid)
2-[4′-(2″-hydroxyethoxy)phenyl]-6-[^123I]iodoimidazo[1,2-a]pyridine [Compound 1] | 34.4 | 51.3 | 46.8 | all high compared to the group without amyloid suspension
2-(4′-ethoxyphenyl)-6-[^123I]iodoimidazo[1,2-a]pyridine [Compound 2] | 37.1 | 46.9 | 53.0 | 
2-[4′-(3″-hydroxypropoxy)phenyl]-6-[^123I]iodoimidazo[1,2-a]pyridine [Compound 6] |  |  |  | all high compared to the group without amyloid suspension
